This note sets out measurements from patent US11208400B2, “Substituted 6-(1H-pyrazol-1-yl)pyrimidin-4-amine derivatives and uses thereof” (Bayer Aktiengesellschaft, priority 2016, dated 2021).

The target in this experiment is T1, human Npt2a (Homo sapiens, UniProt Q06495).
T1 construct: expressed in transfected cells
T1 sequence (Q06495 1-639): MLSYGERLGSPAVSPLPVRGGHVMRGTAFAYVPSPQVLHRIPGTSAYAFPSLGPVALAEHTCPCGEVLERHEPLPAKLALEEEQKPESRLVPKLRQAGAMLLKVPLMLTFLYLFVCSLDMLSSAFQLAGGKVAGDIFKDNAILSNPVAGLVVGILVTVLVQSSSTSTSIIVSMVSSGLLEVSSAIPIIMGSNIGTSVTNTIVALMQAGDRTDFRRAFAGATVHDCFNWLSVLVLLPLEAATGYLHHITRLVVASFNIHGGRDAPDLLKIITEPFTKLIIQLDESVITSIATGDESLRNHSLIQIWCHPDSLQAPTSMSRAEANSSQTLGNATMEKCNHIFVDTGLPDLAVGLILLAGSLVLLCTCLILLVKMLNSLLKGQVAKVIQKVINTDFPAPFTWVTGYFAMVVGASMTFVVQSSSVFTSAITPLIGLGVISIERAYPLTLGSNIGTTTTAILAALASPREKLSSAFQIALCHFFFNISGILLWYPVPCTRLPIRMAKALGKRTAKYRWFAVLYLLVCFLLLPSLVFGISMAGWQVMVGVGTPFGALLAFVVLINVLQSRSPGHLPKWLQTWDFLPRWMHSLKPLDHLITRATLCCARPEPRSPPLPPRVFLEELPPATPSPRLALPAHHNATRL
Briefly: Npt2a activity cell based assay, membrane potential dye, CHO T-REx hNpt2a cells. The conditions noted are these: doxycycline-induced, depolarization by sodium phosphate influx, average or median values if tested more than once. A digest of the protocol:
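Cells were doxycycline-induced CHO T-REx hNpt2a, dye-loaded and pretreated 5 min at RT with 1 nM–50 μM compound in Na-free pH 7.4 buffer. IC50 was fit to the post/pre-trigger fluorescence ratio.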
What is called IC50 is the concentration at which inhibition is half-maximal. A lower IC50 goes with greater potency in that assay. `Cc1nn(-c2cc(Nc3c(C)c(-c4ccc(C#N)cc4)nn3C)ncn2)c(C(F)F)c1Cl` [Example 241, 4-[5-({6-[4-chloro-5-(difluoromethyl)-3-methyl-1H-pyrazol-1-yl]pyrimidin-4-yl}amino)-1,4-dimethyl-1H-pyrazol-3-yl]benzonitrile]: the IC50 is 7 nM.

The compound `CCc1c(Nc2cc(-n3ccc(C)n3)ncn2)nn(C)c1-c1ccc(F)cc1` [Example 242, N-[4-ethyl-5-(4-fluorophenyl)-1-methyl-1H-pyrazol-3-yl]-6-(3-methyl-1H-pyrazol-1-yl)pyrimidin-4-amine] displayed an IC50 of 21 nM.

On to `Cc1ccn(-c2cc(Nc3c(C)c(-c4ccc(C#N)cc4)nn3CC3CC3)ncn2)n1` [Example 243, 4-[1-(cyclopropylmethyl)-4-methyl-5-{[6-(3-methyl-1H-pyrazol-1-yl)pyrimidin-4-yl]amino}-1H-pyrazol-3-yl]benzonitrile], for which the IC50 amounted to 28 nM.

As to `Cc1nn(-c2cc(Nc3c(C)c(-c4ccc(F)cc4)nn3CC3CC3)ncn2)c(C)c1C1(O)CC1` [Example 244, 1-[1-(6-{[1-(cyclopropylmethyl)-3-(4-fluorophenyl)-4-methyl-1H-pyrazol-5-yl]amino}pyrimidin-4-yl)-3,5-dimethyl-1H-pyrazol-4-yl]cyclopropanol], the concentration for half-maximal inhibition (IC50) was determined as 8 nM.

`CCc1c(Nc2cc(-n3cccn3)ncn2)nn(C)c1-c1ccc(F)cc1` [Example 245, N-[4-ethyl-5-(4-fluorophenyl)-1-methyl-1H-pyrazol-3-yl]-6-(1H-pyrazol-1-yl)pyrimidin-4-amine]: the IC50 was determined as 660 nM.

Consider `Cc1c(-c2ccc(C#N)cc2)nn(CC2CC2)c1Nc1cc(-n2cccn2)ncn1` [Example 246, 4-[1-(cyclopropylmethyl)-4-methyl-5-{[6-(1H-pyrazol-1-yl)pyrimidin-4-yl]amino}-1H-pyrazol-3-yl]benzonitrile], for which the IC50 is 340 nM.

In the case of `Cc1c(-c2ccc(C#N)cc2)nn(CC2CC2)c1Nc1cc(-n2cc(C(F)(F)F)cn2)ncn1` [Example 247, 4-[1-(cyclopropylmethyl)-4-methyl-5-({6-[4-(trifluoromethyl)-1H-pyrazol-1-yl]pyrimidin-4-yl}amino)-1H-pyrazol-3-yl]benzonitrile], the IC50 is 29 nM.

For `Cc1cc(C)n(-c2cc(Nc3c(C)c(-c4ccc(C#N)cc4)nn3CC(F)F)ncn2)n1` [Example 248, 4-[1-(2,2-difluoroethyl)-5-{[6-(3,5-dimethyl-1H-pyrazol-1-yl)pyrimidin-4-yl]amino}-4-methyl-1H-pyrazol-3-yl]benzonitrile], the IC50 is 182 nM.

The compound `CCc1c(Nc2cc(-n3cc(C(F)(F)F)cn3)ncn2)nn(C)c1-c1ccc(F)cc1` [Example 250, N-[4-ethyl-5-(4-fluorophenyl)-1-methyl-1H-pyrazol-3-yl]-6-[4-(trifluoromethyl)-1H-pyrazol-1-yl]pyrimidin-4-amine] displayed an IC50 of 21 nM.

Regarding `Cc1cc(C(F)F)n(-c2cc(Nc3nn(CC(F)F)c(-c4ccc(C#N)cc4)c3C)ncn2)n1` [Example 251, 4-[1-(2,2-difluoroethyl)-3-({6-[5-(difluoromethyl)-3-methyl-1H-pyrazol-1-yl]pyrimidin-4-yl}amino)-4-methyl-1H-pyrazol-5-yl]benzonitrile], inhibition was half-maximal at 14 nM (IC50).

Regarding `Cc1cc(C)n(-c2cc(Nc3nn(CC(F)F)c(-c4ccc(C#N)cc4)c3C)ncn2)n1` [Example 252, 4-[1-(2,2-difluoroethyl)-3-{[6-(3,5-dimethyl-1H-pyrazol-1-yl)pyrimidin-4-yl]amino}-4-methyl-1H-pyrazol-5-yl]benzonitrile], 48 nM corresponded to half-maximal inhibition (IC50).

Compound `COc1c(Nc2cc(-n3nc(C)cc3C)ncn2)nn(C)c1-c1ccc(F)cc1` [Example 253, 6-(3,5-dimethyl-1H-pyrazol-1-yl)-N-[5-(4-fluorophenyl)-4-methoxy-1-methyl-1H-pyrazol-3-yl]pyrimidin-4-amine] displayed an IC50 of 67 nM.

`COc1c(-c2ccc(F)cc2)nn(C)c1Nc1cc(-n2nc(C)cc2C)ncn1` [Example 254, 6-(3,5-dimethyl-1H-pyrazol-1-yl)-N-[3-(4-fluorophenyl)-4-methoxy-1-methyl-1H-pyrazol-5-yl]pyrimidin-4-amine] gave an IC50 of 150 nM.

In turn, `CCc1c(Nc2cc(-n3nc(C)c(CC4(O)CC4)c3C)ncn2)nn(C)c1-c1ccc(F)cc1` [Example 256, 1-{[1-(6-{[4-ethyl-5-(4-fluorophenyl)-1-methyl-1H-pyrazol-3-yl]amino}pyrimidin-4-yl)-3,5-dimethyl-1H-pyrazol-4-yl]methyl}cyclopropanol] gave an IC50 of 35 nM.

In turn, `CCOC(=O)Cc1c(C)nn(-c2cc(Nc3c(C)nn(-c4ccc(C#N)cc4)c3C)ncn2)c1C` [Example 257, ethyl [1-(6-{[1-(4-cyanophenyl)-3,5-dimethyl-1H-pyrazol-4-yl]amino}pyrimidin-4-yl)-3,5-dimethyl-1H-pyrazol-4-yl]acetate] displayed an IC50 of 74 nM.

`CCOC(=O)c1cc(C)nn1-c1cc(Nc2c(C)c(-c3ccc(C#N)cc3)nn2CC2CC2)ncn1` [Example 258, ethyl 1-(6-{[3-(4-cyanophenyl)-1-(cyclopropylmethyl)-4-methyl-1H-pyrazol-5-yl]amino}pyrimidin-4-yl)-3-methyl-1H-pyrazole-5-carboxylate] gave an IC50 of 2800 nM.

As for `CCOC(=O)c1c(Cl)c(C)nn1-c1cc(Nc2nn(C)c(-c3ccc(F)cc3)c2C)ncn1` [Example 259, ethyl 4-chloro-1-(6-{[5-(4-fluorophenyl)-1,4-dimethyl-1H-pyrazol-3-yl]amino}pyrimidin-4-yl)-3-methyl-1H-pyrazole-5-carboxylate], it took 50 nM to reach half-maximal inhibition (IC50).

As for `Cc1cc(C)n(-c2cc(Nc3c(C)c(-c4ccc(Br)cc4)nn3C)ncn2)n1` [Example 260, N-[3-(4-bromophenyl)-1,4-dimethyl-1H-pyrazol-5-yl]-6-(3,5-dimethyl-1H-pyrazol-1-yl)pyrimidin-4-amine], inhibition was half-maximal at 140 nM (IC50).

Compound `Cc1nn(-c2cc(Nc3nn(C)c(-c4ccc(F)cc4)c3C)ncn2)c(C(C)(C)O)c1Cl` [Example 261, 2-[4-chloro-1-(6-{[5-(4-fluorophenyl)-1,4-dimethyl-1H-pyrazol-3-yl]amino}pyrimidin-4-yl)-3-methyl-1H-pyrazol-5-yl]propan-2-ol] showed an IC50 of 20 nM.

`Cc1cc(C(C)(C)O)n(-c2cc(Nc3nn(C)c(-c4ccc(F)cc4)c3C)ncn2)n1` [Example 262, 2-[1-(6-{[5-(4-fluorophenyl)-1,4-dimethyl-1H-pyrazol-3-yl]amino}pyrimidin-4-yl)-3-methyl-1H-pyrazol-5-yl]propan-2-ol] showed an IC50 of 33 nM.

Regarding `Cc1cc(C(C)(C)O)n(-c2cc(Nc3c(C)c(-c4ccc(C#N)cc4)nn3CC3CC3)ncn2)n1` [Example 263, 4-[1-(cyclopropylmethyl)-5-({6-[5-(2-hydroxypropan-2-yl)-3-methyl-1H-pyrazol-1-yl]pyrimidin-4-yl}amino)-4-methyl-1H-pyrazol-3-yl]benzonitrile], the IC50 amounted to 111 nM.

In turn, `CCc1c(-c2ccc(F)cc2)nn(C)c1Nc1cc(-n2nc(C)cc2C(C)(C)O)ncn1` [Example 264, 2-[1-(6-{[4-ethyl-3-(4-fluorophenyl)-1-methyl-1H-pyrazol-5-yl]amino}pyrimidin-4-yl)-3-methyl-1H-pyrazol-5-yl]propan-2-ol] had an IC50 of 500 nM.

`CCc1c(-c2ccc(F)cc2)nn(C)c1Nc1cc(-n2nc(C)c(Br)c2C)ncn1` [Example 265, 6-(4-bromo-3,5-dimethyl-1H-pyrazol-1-yl)-N-[4-ethyl-3-(4-fluorophenyl)-1-methyl-1H-pyrazol-5-yl]pyrimidin-4-amine] yielded an IC50 of 180 nM.

The compound `Cc1nn(-c2cc(Nc3[nH]nc(-c4ccc(C#N)cc4)c3C)ncn2)c(C)c1F` [Example 266, 4-(5-{[6-(4-fluoro-3,5-dimethyl-1H-pyrazol-1-yl)pyrimidin-4-yl]amino}-4-methyl-1H-pyrazol-3-yl)benzonitrile] yielded an IC50 of 410 nM.

For `Cc1nn(-c2cc(Nc3nn(C)c(-c4ccc(F)cc4)c3C)ncn2)c(C)c1F` [Example 267, 6-(4-fluoro-3,5-dimethyl-1H-pyrazol-1-yl)-N-[5-(4-fluorophenyl)-1,4-dimethyl-1H-pyrazol-3-yl]pyrimidin-4-amine], the IC50 was determined as 27 nM.

For `Cc1nn(-c2cc(Nc3c(C)c(-c4ccc(C#N)cc4)nn3CC3CC3)ncn2)c(C)c1F` [Example 268, 4-[1-(cyclopropylmethyl)-5-{[6-(4-fluoro-3,5-dimethyl-1H-pyrazol-1-yl)pyrimidin-4-yl]amino}-4-methyl-1H-pyrazol-3-yl]benzonitrile], it took 8 nM to reach half-maximal inhibition (IC50).

Compound `CCc1c(Nc2cc(-n3nc(C)c(Cl)c3C(F)F)ncn2)nn(C)c1-c1ccc(F)cc1` [Example 270, 6-[4-chloro-5-(difluoromethyl)-3-methyl-1H-pyrazol-1-yl]-N-[4-ethyl-5-(4-fluorophenyl)-1-methyl-1H-pyrazol-3-yl]pyrimidin-4-amine] showed an IC50 of 12 nM.

As for `CCc1c(Nc2cc(-n3nc(C)c(-c4nnc(C)o4)c3C)ncn2)nn(C)c1-c1ccc(F)cc1` [Example 271, 6-[3,5-dimethyl-4-(5-methyl-1,3,4-oxadiazol-2-yl)-1H-pyrazol-1-yl]-N-[4-ethyl-5-(4-fluorophenyl)-1-methyl-1H-pyrazol-3-yl]pyrimidin-4-amine], the IC50 was determined as 39 nM.
